{
  "source": "patent US20240016781A1",
  "about": "“TREATMENT OF KRAS MUTANT CANCERS” (MEI Pharma, Inc., priority 2020, published 2024)",
  "experiment_in_all_cases": "72-hour CellTiter-Glo 2.0 growth inhibition screen (single agent, 9x9 combination dose matrix)",
  "assay_type_in_all_cases": "cell-based",
  "key": {"[1]": {"test_system": "SW48", "conditions": "SW48, Colorectal, 72 h", "protocol": "(§1) Growth inhibition was determined using a 72-hour CellTiter-Glo®2.0 proliferation assay. Combination format was a 9×9 dose matrix. Six of the 20 cell lines received the original two combinations whilst the remaining 14 cell lines received two additional combinations resulting in four combinations in total. Results have been supplied as both Chalice Analyzer files (.mcc) and raw luminescence data.\n(§2) Cell lines that have been preserved in liquid nitrogen are thawed and expanded in growth media (see Appendix I). Once cells have reached expected doubling times, screening begins. Cells are seeded in 25 μl of growth media in black 384-well tissue culture treated plates at 500 cells per well (as noted in Analyzer). Cells are equilibrated in assay plates via centrifugation and placed at 37° C. 5% CO2 for twenty-four hours before treatment. […] Compounds are transferred to assay plates using and Echo acoustic liquid handling system. […] of each compound was added at the appropriate concentration for all combination dose points. Therefore, final assay volume would be 25.05 μl. Assay plates are incubated with compound for 3 days and are then analyzed using CellTiter-Glo 2.0. All data points are collected via automated processes and are subject to quality control and analyzed.\n(§3) If T≥V_0:100*(1−(T−V_0)/(V−V_0)) • where T is the signal measure for a test article, V is the untreated/vehicle-treated control measure, and Vo is the untreated/vehicle control measure at time zero (also colloquially referred as TO plates). This formula is derived from the Growth Inhibition calculation used in the National Cancer Institute's NCI-60 high throughput screen. For the purposes of this disclosure, all data analysis was performed in Growth Inhibition (except where noted).\n(§4) Inhibition is also provided as a measure of cell viability. […] Inhibition of 100% represents no doubling of cell numbers during the treatment window. Both cytostatic and cytotoxic treatments can yield an Inhibition percentage of 100%. Inhibition percentage is calculated as the following: […]\n(§5) The fractional inhibition for each component agent and combination point in the matrix is calculated relative to the median of all untreated/vehicle-treated control wells. The Synergy Score equation integrates the experimentally-observed activity volume at each point in the matrix in excess of a model surface numerically derived from the activity of the component agents using the Loewe model for additivity. Additional terms in the Synergy Score equation (above) are used to normalize for various dilution factors used for individual agents and to allow for comparison of synergy scores across an entire experiment. The inclusion of positive inhibition gating or an Idata multiplier removes noise near the zero-effect level, and biases results for synergistic interactions at that occur at high activity levels. Combinations with higher maximum Growth Inhibition (GI) effects or those which are synergistic at low concentrations will have higher Synergy Scores.\n(§6) The CI is a rough estimate of how much drug was needed in combination relative to the single agent doses required to achieve the chosen effect level. CI values in the range of 0.5-0.7 are typical for in vitro measurements of current clinical combinations. The CI error (σCI) is calculated using standard error propagation through the CI calculation based on the isobologram errors. In the Chalice Analyzer, the Best CI is reported from the many CI values calculated for each Icut crossing combination. Among all the measured CI values, the one with the largest single-to-noise level (1−CI)/σCI is reported as the Best CI. Best CI Level is the effect level from which the CI is calculated."}, "[2]": {"test_system": "Gp2D", "conditions": "Gp2D, Colorectal, 72 h", "protocol": "as §1, §2, §3, §4, §5, §6"}, "[3]": {"test_system": "NCI-H358", "conditions": "NCl-H358, Lung, 72 h", "protocol": "as §1, §2, §3, §4, §5, §6"}, "[4]": {"test_system": "Panc 04.03", "conditions": "Panc 04.03, Pancreas, 72 h", "protocol": "as §1, §2, §3, §4, §5, §6"}, "[5]": {"test_system": "SW837", "conditions": "SW837, Colorectal, 72 h", "protocol": "as §1, §2, §3, §4, §5, §6"}, "[6]": {"conditions": "Additional Single Agent Responses (inhibition, % I)"}, "[7]": {"conditions": "Additional Single Agent Responses"}, "[8]": {"conditions": "growth inhibition (GI) curve, single agent"}, "[9]": {"conditions": "growth inhibition (GI), AUC, single agent"}, "[10]": {"conditions": "growth inhibition (GI), single agent"}},
  "data": [
    {"smiles": "CN1CC[C@@H](c2c(O)cc(O)c3c(=O)cc(-c4ccc(C(F)(F)F)cc4Cl)oc23)[C@@H]1CO", "note": "[MEI-522(Voruciclib)]", "values": [
      {"measurement": "EC50", "setting": "[1]; [6]", "value": 443, "unit": "nM"},
      {"measurement": "IC50", "setting": "[1]; [6]", "value": 526, "unit": "nM"},
      {"measurement": "Response Area", "setting": "[1]; [6]", "value": 2.91},
      {"measurement": "Max Response (% I)", "setting": "[1]; [7]", "value": 87, "unit": "% I"},
      {"measurement": "EC50", "setting": "[1]; [8]", "value": 566, "unit": "nM"},
      {"measurement": "GI50", "setting": "[1]; [8]", "value": 422, "unit": "nM"},
      {"measurement": "Response Area", "setting": "[1]; [9]", "value": 4.44},
      {"measurement": "Max Response (% GI)", "setting": "[1]; [10]", "value": 135, "unit": "% GI"},
      {"measurement": "EC50", "setting": "[2]; [6]", "value": 747, "unit": "nM"},
      {"measurement": "IC50", "setting": "[2]; [6]", "value": 791, "unit": "nM"},
      {"measurement": "Response Area", "setting": "[2]; [6]", "value": 2.94},
      {"measurement": "Max Response (% I)", "setting": "[2]; [7]", "value": 94, "unit": "% I"},
      {"measurement": "EC50", "setting": "[2]; [8]", "value": 1170, "unit": "nM"},
      {"measurement": "GI50", "setting": "[2]; [8]", "value": 695, "unit": "nM"},
      {"measurement": "Response Area", "setting": "[2]; [9]", "value": 5.14},
      {"measurement": "Max Response (% GI)", "setting": "[2]; [10]", "value": 176, "unit": "% GI"},
      {"measurement": "EC50", "setting": "[3]; [6]", "value": 591, "unit": "nM"},
      {"measurement": "IC50", "setting": "[3]; [6]", "value": 628, "unit": "nM"},
      {"measurement": "Response Area", "setting": "[3]; [6]", "value": 2.50},
      {"measurement": "Max Response (% I)", "setting": "[3]; [7]", "value": 85, "unit": "% I"},
      {"measurement": "EC50", "setting": "[3]; [8]", "value": 598, "unit": "nM"},
      {"measurement": "GI50", "setting": "[3]; [8]", "value": 585, "unit": "nM"},
      {"measurement": "Response Area", "setting": "[3]; [9]", "value": 3.61},
      {"measurement": "Max Response (% GI)", "setting": "[3]; [10]", "value": 137, "unit": "% GI"},
      {"measurement": "EC50", "setting": "[4]; [6]", "value": 1310, "unit": "nM"},
      {"measurement": "IC50", "setting": "[4]; [6]", "value": 1410, "unit": "nM"},
      {"measurement": "Response Area", "setting": "[4]; [6]", "value": 2.65},
      {"measurement": "Max Response (% I)", "setting": "[4]; [7]", "value": 92, "unit": "% I"},
      {"measurement": "EC50", "setting": "[4]; [8]", "value": 1740, "unit": "nM"},
      {"measurement": "GI50", "setting": "[4]; [8]", "value": 1300, "unit": "nM"},
      {"measurement": "Response Area", "setting": "[4]; [9]", "value": 4.67},
      {"measurement": "Max Response (% GI)", "setting": "[4]; [10]", "value": 168, "unit": "% GI"},
      {"measurement": "EC50", "setting": "[5]; [6]", "value": 1990, "unit": "nM"},
      {"measurement": "IC50", "setting": "[5]; [6]", "value": 2090, "unit": "nM"},
      {"measurement": "Response Area", "setting": "[5]; [6]", "value": 2.44},
      {"measurement": "Max Response (% I)", "setting": "[5]; [7]", "value": 90, "unit": "% I"},
      {"measurement": "EC50", "setting": "[5]; [8]", "value": 2100, "unit": "nM"},
      {"measurement": "GI50", "setting": "[5]; [8]", "value": 1750, "unit": "nM"},
      {"measurement": "Response Area", "setting": "[5]; [9]", "value": 4.48},
      {"measurement": "Max Response (% GI)", "setting": "[5]; [10]", "value": 166, "unit": "% GI"}
    ]}
  ]
}
